{"source": "PubChem BioAssay AID330", "about": "(DTP/NCI, 2004)", "tested_on": "P388 leukemia ip, CD2F1 mice, survival T/C", "experiment": "NCI In Vivo Anticancer Drug Screen. Data for tumor model P388 Leukemia (intraperitoneal) in CD2F1 (CDF1) mice", "settings": "endpoint: median survival time, higher = longer survival", "in_short": "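Mice carrying the transplanted tumor received test compound or vehicle. Survival was recorded in each group, and the value is the treated-group measurement divided by that of the vehicle-treated control group.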", "key": {"[1]": {"settings": "dose: 50.0 mg/kg/injection, schedule: Q01DX009 (ip), vehicle: saline with Tween-80"}, "[2]": {"settings": "dose: 100.0 mg/kg/injection, schedule: Q01DX009 (ip), vehicle: saline with Tween-80"}, "[3]": {"settings": "dose: 100.0 mg/kg/injection, schedule: Q04DX003 (ip), vehicle: saline with Tween-80"}, "[4]": {"settings": "dose: 200.0 mg/kg/injection, schedule: Q04DX003 (ip), vehicle: saline with Tween-80"}, "[5]": {"settings": "dose: 400.0 mg/kg/injection, schedule: Q04DX003 (ip), vehicle: saline with Tween-80"}}, "note": "“And” between values parts separate entries of the source, which are not always exact repeats. Equal values may be shown once. Toxic doses and inconclusive results are not listed."}
{"smiles": "CC1=C(C#N)C(C)(C)C(C#N)=C(C)N1C", "values": [{"measurement": "T/C", "setting": "dose: 25.0 mg/kg/injection, schedule: Q01DX009 (ip), vehicle: other", "value": "110 % of control"}, {"measurement": "T/C", "setting": "dose: 50.0 mg/kg/injection, schedule: Q01DX009 (ip), vehicle: other", "value": "111 % of control"}, {"measurement": "T/C", "setting": "[1]", "value": "102 % of control"}, {"measurement": "T/C", "setting": "dose: 100.0 mg/kg/injection, schedule: Q01DX009 (ip), vehicle: other", "value": "121 % of control"}, {"measurement": "T/C", "setting": "[2]", "value": "98 % of control"}]}
{"smiles": "COc1cccc2nncn12", "values": [{"measurement": "T/C", "setting": "dose: 50.0 mg/kg/injection, schedule: Q01DX001 (ip), vehicle: saline", "value": "100 % of control"}, {"measurement": "T/C", "setting": "dose: 100.0 mg/kg/injection, schedule: Q01DX001 (ip), vehicle: saline", "value": "100 % of control"}, {"measurement": "T/C", "setting": "dose: 200.0 mg/kg/injection, schedule: Q01DX001 (ip), vehicle: saline", "value": "100 % of control"}]}
{"smiles": "O=C1NC(c2ccccc2)N=C2Oc3ccccc3C=C12", "note": "(configuration not stated)", "values": [{"measurement": "T/C", "setting": "dose: 3.12 mg/kg/injection, schedule: Q01DX009 (ip), vehicle: saline", "value": "97 % of control"}, {"measurement": "T/C", "setting": "dose: 6.25 mg/kg/injection, schedule: Q01DX009 (ip), vehicle: saline", "value": "97 % of control"}, {"measurement": "T/C", "setting": "dose: 12.5 mg/kg/injection, schedule: Q01DX009 (ip), vehicle: saline with Tween-80", "value": "115 % of control"}, {"measurement": "T/C", "setting": "dose: 12.5 mg/kg/injection, schedule: Q01DX009 (ip), vehicle: saline", "value": "106 % of control"}]}
{"smiles": "COc1ccc(/C=C2\\NC(c3ccccc3)OC2=O)cc1OC", "note": "(configuration not stated)", "values": [{"measurement": "T/C", "setting": "dose: 50.0 mg/kg/injection, schedule: Q01DX009 (ip), vehicle: Klucel (hydroxypropylcellulose) (HPC)", "value": "98 % of control"}, {"measurement": "T/C", "setting": "dose: 100.0 mg/kg/injection, schedule: Q01DX009 (ip), vehicle: Klucel (hydroxypropylcellulose) (HPC)", "value": "89 % of control"}, {"measurement": "T/C", "setting": "dose: 200.0 mg/kg/injection, schedule: Q01DX009 (ip), vehicle: Klucel (hydroxypropylcellulose) (HPC)", "value": "100 % of control"}]}
{"smiles": "CN1OC(C#N)CC1c1ccccc1", "note": "(configuration not stated)", "values": [{"measurement": "T/C", "setting": "dose: 12.5 mg/kg/injection, schedule: Q04DX002 (ip), vehicle: Klucel (hydroxypropylcellulose) (HPC)", "value": "100 % of control"}, {"measurement": "T/C", "setting": "dose: 25.0 mg/kg/injection, schedule: Q04DX002 (ip), vehicle: Klucel (hydroxypropylcellulose) (HPC)", "value": "99 % of control and 101 % of control"}, {"measurement": "T/C", "setting": "dose: 50.0 mg/kg/injection, schedule: Q04DX002 (ip), vehicle: Klucel (hydroxypropylcellulose) (HPC)", "value": "101 % of control and 112 % of control"}, {"measurement": "T/C", "setting": "dose: 87.5 mg/kg/injection, schedule: Q04DX002 (ip), vehicle: Klucel (hydroxypropylcellulose) (HPC)", "value": "101 % of control"}, {"measurement": "T/C", "setting": "dose: 100.0 mg/kg/injection, schedule: Q04DX002 (ip), vehicle: Klucel (hydroxypropylcellulose) (HPC)", "value": "103 % of control and 105 % of control and 121 % of control"}, {"measurement": "T/C", "setting": "dose: 350.0 mg/kg/injection, schedule: Q04DX002 (ip), vehicle: Klucel (hydroxypropylcellulose) (HPC)", "value": "100 % of control"}]}
{"smiles": "Cc1cc(NCCCCCCNc2cc(C)nc3ccc(N)cc23)c2cc(N)ccc2n1", "values": [{"measurement": "T/C", "setting": "dose: 75.0 mg/kg/injection, schedule: Q04DX003 (ip), vehicle: alcohol", "value": "177 % of control"}, {"measurement": "T/C", "setting": "dose: 150.0 mg/kg/injection, schedule: Q04DX003 (ip), vehicle: alcohol", "value": "186 % of control"}, {"measurement": "T/C", "setting": "dose: 300.0 mg/kg/injection, schedule: Q04DX003 (ip), vehicle: alcohol", "value": "190 % of control"}]}
{"smiles": "OC1CC(OCc2ccccc2)CC1O", "note": "(configuration not stated)", "values": [{"measurement": "T/C", "setting": "[1]", "value": "103 % of control"}, {"measurement": "T/C", "setting": "[2]", "value": "97 % of control"}, {"measurement": "T/C", "setting": "dose: 200.0 mg/kg/injection, schedule: Q01DX009 (ip), vehicle: saline with Tween-80", "value": "103 % of control"}]}
{"smiles": "CCN(CC)C(C)(C)C(=O)/C=C/c1ccc(OC)cc1", "values": [{"measurement": "T/C", "setting": "dose: 60.0 mg/kg/injection, schedule: Q01DX005 (ip), vehicle: saline with Tween-80", "value": "115 % of control"}, {"measurement": "T/C", "setting": "dose: 120.0 mg/kg/injection, schedule: Q01DX005 (ip), vehicle: saline with Tween-80", "value": "107 % of control"}, {"measurement": "T/C", "setting": "dose: 240.0 mg/kg/injection, schedule: Q01DX005 (ip), vehicle: saline with Tween-80", "value": "100 % of control"}]}
{"smiles": "COC(=O)C12CCc3cc(OC)ccc3C1=CC(=O)C2", "note": "(configuration not stated)", "values": [{"measurement": "T/C", "setting": "dose: 50.0 mg/kg/injection, schedule: Q04DX003 (ip), vehicle: saline with Tween-80", "value": "101 % of control"}, {"measurement": "T/C", "setting": "[3]", "value": "105 % of control"}, {"measurement": "T/C", "setting": "[4]", "value": "100 % of control"}, {"measurement": "T/C", "setting": "[5]", "value": "100 % of control"}]}
{"smiles": "COC(=O)C12Oc3ccc(-c4ccc5c(c4O)C(=O)C4=CCC(C)C(O)C4(C(=O)OC)O5)c(O)c3C(=O)C1=CCC(C)C2O", "note": "(configuration not stated)", "values": [{"measurement": "T/C", "setting": "dose: 2.5 mg/kg/injection, schedule: Q01DX009 (ip), vehicle: saline with Tween-80", "value": "91 % of control"}, {"measurement": "T/C", "setting": "dose: 5.0 mg/kg/injection, schedule: Q01DX009 (ip), vehicle: saline with Tween-80", "value": "95 % of control"}, {"measurement": "T/C", "setting": "dose: 10.0 mg/kg/injection, schedule: Q01DX009 (ip), vehicle: saline with Tween-80", "value": "88 % of control"}]}
{"smiles": "C=CCNc1ccc(C)cc1", "values": [{"measurement": "T/C", "setting": "dose: 33.0 mg/kg/injection, schedule: Q01DX009 (ip), vehicle: saline with Tween-80", "value": "116 % of control"}, {"measurement": "T/C", "setting": "[1]", "value": "116 % of control"}, {"measurement": "T/C", "setting": "[3]", "value": "100 % of control"}, {"measurement": "T/C", "setting": "[4]", "value": "122 % of control"}, {"measurement": "T/C", "setting": "[5]", "value": "90 % of control"}]}
